Data as given in ChEMBL document CHEMBL1201862, “PubChem BioAssay data set” (2004).
One block for each compound: values may come before it. Active and inactive are the calls of the source.

What was measured:
Estrogen receptor = molecular target: T1, Estrogen receptor (Homo sapiens, UniProt P03372);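 further: potency for inhibiting coactivator peptide recruitment to the receptor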
T1 sequence (P03372 whole entry): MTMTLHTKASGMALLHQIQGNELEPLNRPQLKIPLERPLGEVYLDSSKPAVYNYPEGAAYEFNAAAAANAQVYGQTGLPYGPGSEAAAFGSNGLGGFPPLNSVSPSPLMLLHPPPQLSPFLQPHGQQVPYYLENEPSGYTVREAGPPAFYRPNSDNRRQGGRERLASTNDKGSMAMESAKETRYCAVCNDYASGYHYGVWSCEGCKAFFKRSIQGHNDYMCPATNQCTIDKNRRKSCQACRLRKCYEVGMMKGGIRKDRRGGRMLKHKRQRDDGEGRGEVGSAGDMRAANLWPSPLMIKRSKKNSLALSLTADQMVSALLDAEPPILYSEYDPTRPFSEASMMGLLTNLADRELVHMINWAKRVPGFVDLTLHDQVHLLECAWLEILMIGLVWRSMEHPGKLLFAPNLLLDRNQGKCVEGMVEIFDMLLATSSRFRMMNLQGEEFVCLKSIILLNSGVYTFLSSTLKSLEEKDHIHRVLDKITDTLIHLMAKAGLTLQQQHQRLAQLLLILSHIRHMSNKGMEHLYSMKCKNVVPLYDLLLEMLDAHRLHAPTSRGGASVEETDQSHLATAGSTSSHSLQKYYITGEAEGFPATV

Estrogen receptor beta = Estrogen receptor beta (Homo sapiens, UniProt Q92731);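 further: recombinant ER-beta bound to coactivator SRC1 peptide in presence of estradiol agonist; inhibitors block coactivator peptide binding and lower the FRET signal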
[1] = THP-1 cell cytotoxicity, dose response, cytotoxicity control for Vif-APOBEC3G degradation inhibitor project, THP-1 cells (AID 1117359); format: functional; details: Human immunodeficiency virus 1, THP-1
[2] = inhibitors of Vif binding to APOBEC3G peptide, primary screen, biochemical, TR-FRET, GST-Vif 1-94, biotin-A3G peptide, dose response retest (AID 1117319); format: functional;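 further: TR-FRET signal of purified GST-Vif binding a biotinylated A3G peptide; inhibitors lower the FRET signal by blocking Vif and A3G binding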
[3] = inhibitors of intracellular T. cruzi replication, confirmation, NIH3T3 host cells, beta-gal luminescence (AID 2044); format: functional, cell-based;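 further: intracellular parasites grown in NIH/3T3 mouse fibroblasts as host cells; luminescent beta-galactosidase reporter signal from transgenic T. cruzi replicating inside host cells; inhibitors lower the luminescence signal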
[4] = cytotoxicity toward NIH3T3 fibroblasts, dose response, counter-screen, cell-based, ATP luminescence, mouse fibroblasts (AID 2010); format: functional;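 further: cells exposed to compound for about 90 hours before reading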
Vero = test: West Nile virus antiviral activity, cell-based, CPE readout (AID 1621); format: functional; details: Chlorocebus sabaeus
[5] = molecular target: T2, Voltage-gated N-type calcium channel alpha-1B subunit/Amyloid beta A4 precursor protein-binding family A member 1 (Homo sapiens, UniProt Q00975+Q02410); format: protein assay
T2 sequence (Q00975 whole entry): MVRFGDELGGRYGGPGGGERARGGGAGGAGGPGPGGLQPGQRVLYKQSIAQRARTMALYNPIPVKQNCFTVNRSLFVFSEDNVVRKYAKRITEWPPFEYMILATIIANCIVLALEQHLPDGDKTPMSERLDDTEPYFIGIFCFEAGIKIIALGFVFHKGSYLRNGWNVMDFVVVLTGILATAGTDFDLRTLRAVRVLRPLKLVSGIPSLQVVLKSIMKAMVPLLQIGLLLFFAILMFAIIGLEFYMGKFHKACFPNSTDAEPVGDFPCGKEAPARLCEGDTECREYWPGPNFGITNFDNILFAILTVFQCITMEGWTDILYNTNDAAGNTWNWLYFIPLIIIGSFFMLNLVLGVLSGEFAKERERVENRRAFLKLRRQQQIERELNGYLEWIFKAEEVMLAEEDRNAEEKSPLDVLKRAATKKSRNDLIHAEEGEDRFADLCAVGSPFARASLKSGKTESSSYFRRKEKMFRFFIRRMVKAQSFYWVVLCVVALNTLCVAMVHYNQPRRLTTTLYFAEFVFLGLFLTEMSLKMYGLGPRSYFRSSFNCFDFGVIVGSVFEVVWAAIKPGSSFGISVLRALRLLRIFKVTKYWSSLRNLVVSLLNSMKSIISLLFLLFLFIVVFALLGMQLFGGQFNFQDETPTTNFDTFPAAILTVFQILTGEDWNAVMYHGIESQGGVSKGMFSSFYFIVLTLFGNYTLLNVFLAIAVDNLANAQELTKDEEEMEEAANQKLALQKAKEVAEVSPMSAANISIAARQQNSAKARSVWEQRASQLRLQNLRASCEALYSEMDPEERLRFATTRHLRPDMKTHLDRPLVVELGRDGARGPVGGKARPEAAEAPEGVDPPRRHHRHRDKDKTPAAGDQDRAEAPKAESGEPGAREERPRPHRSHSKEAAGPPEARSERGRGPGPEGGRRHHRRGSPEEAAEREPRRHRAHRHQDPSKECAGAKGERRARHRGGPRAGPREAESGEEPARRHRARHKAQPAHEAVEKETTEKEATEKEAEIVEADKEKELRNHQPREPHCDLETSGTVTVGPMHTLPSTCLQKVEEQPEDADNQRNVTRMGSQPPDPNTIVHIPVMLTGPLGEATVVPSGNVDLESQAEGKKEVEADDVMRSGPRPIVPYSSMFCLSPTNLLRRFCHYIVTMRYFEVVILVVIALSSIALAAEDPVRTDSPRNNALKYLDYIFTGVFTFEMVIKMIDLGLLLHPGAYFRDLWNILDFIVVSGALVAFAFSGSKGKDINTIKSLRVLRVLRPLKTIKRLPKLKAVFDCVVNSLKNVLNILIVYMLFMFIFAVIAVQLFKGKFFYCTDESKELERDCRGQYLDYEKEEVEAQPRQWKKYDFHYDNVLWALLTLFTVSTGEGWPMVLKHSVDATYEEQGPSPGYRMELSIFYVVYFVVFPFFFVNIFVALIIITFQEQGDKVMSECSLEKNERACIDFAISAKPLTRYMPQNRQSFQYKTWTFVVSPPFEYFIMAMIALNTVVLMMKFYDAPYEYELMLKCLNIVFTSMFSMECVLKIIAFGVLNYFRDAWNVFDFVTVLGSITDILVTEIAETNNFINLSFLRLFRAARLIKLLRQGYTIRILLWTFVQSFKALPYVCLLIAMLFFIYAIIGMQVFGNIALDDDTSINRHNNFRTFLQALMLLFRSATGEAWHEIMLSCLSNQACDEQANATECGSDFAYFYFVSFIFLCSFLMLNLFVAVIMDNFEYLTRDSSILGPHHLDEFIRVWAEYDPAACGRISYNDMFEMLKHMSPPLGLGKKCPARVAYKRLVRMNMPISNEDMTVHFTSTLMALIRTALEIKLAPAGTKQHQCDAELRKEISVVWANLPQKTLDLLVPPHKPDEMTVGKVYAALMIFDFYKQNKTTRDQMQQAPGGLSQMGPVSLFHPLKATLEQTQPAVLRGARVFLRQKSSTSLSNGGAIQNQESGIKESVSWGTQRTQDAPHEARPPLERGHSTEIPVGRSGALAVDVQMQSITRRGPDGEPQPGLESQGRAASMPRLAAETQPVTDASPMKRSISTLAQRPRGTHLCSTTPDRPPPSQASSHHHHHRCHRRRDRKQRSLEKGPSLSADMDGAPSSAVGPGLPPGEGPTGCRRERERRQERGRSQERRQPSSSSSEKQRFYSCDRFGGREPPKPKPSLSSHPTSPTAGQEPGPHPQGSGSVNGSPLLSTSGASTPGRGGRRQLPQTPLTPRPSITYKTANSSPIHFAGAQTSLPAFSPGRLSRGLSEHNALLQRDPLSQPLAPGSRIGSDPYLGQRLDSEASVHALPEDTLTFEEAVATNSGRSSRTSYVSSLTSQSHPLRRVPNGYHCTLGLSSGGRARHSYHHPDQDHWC
T2 sequence (Q02410 whole entry): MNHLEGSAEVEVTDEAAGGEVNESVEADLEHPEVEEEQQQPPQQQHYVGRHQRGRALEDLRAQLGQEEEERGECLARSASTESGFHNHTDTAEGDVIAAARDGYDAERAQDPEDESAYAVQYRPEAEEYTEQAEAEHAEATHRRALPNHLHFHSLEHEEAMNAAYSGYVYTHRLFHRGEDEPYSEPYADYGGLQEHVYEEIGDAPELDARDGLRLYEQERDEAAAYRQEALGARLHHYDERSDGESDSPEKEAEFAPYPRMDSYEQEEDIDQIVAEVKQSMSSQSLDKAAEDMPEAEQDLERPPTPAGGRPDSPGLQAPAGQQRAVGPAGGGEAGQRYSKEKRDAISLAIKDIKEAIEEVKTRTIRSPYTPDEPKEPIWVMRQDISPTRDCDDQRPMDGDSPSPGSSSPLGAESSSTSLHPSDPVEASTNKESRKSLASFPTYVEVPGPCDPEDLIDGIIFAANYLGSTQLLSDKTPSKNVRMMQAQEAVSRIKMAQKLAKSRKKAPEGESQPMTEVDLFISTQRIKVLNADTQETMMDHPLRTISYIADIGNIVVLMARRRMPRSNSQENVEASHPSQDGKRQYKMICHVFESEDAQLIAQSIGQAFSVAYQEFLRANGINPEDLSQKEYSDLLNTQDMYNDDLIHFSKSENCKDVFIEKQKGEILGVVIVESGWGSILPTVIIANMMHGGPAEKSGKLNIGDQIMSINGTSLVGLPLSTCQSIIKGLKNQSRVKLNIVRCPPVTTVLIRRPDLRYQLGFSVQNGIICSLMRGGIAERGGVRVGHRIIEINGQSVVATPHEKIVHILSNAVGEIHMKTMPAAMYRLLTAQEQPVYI

[6] = molecular target: T2, Voltage-gated N-type calcium channel alpha-1B subunit/Amyloid beta A4 precursor protein-binding family A member 1; format: protein assay; remark: listed apart in the source
Cytochrome P450 2C19 = Cytochrome P450 2C19 (Homo sapiens, UniProt P33261); test: Cytochrome panel assay with activity outcomes. Panel member name: p450-cyp2c19 Compounds with AC50 equal or less than 10 uM are considered active; format: functional; details: read-out: AC50
Chain of Cytochrome P450 2C19 (P33261 whole entry): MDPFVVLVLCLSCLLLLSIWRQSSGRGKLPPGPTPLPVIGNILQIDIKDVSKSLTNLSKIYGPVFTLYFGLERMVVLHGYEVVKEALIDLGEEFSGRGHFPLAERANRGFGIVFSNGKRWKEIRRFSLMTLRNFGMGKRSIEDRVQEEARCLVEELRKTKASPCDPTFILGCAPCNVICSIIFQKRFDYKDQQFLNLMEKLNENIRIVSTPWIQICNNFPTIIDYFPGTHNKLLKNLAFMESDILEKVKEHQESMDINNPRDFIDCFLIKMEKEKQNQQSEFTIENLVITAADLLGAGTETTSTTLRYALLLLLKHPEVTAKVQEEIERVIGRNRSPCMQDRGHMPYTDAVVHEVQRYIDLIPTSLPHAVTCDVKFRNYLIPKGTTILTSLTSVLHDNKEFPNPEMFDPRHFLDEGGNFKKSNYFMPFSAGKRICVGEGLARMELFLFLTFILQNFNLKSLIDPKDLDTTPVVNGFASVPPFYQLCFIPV

[7] = molecular target: 26S proteasome non-ATPase regulatory subunit 14 (Homo sapiens, UniProt O00487); test: inhibition of proteasome subunit RPN11 – biochemical, fluorescence polarization, uHTS hits, confirmation (AID 602368); format: functional
Chain of 26S proteasome non-ATPase regulatory subunit 14 (O00487 whole entry): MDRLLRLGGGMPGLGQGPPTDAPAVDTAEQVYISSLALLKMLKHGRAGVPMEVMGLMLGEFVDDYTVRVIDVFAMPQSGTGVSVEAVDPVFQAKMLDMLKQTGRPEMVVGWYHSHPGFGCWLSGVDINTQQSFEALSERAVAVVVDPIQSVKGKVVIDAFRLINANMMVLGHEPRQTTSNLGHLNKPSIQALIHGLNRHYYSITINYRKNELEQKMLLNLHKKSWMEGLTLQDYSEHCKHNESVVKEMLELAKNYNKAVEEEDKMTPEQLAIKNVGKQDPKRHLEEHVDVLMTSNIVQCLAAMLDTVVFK

[8] = molecular target: 72 kDa type IV collagenase (Homo sapiens, UniProt P08253); test: Dose Response validation of uHTS RPN11 inhibitor hits using a MMP-2 Fluorescence assay.; format: functional
Prothrombin = Prothrombin (Bos taurus, UniProt P00735); test: thrombin inhibition, dose response, biochemical, fluorescence polarization, uHTS hits (AID 602369); format: functional
Fibrinogen beta chain [9] = molecular target: T3, Fibrinogen beta chain (Homo sapiens, UniProt P02675); test: Fluorescence polarization-based biochemical high throughput dose response assay to identify inhibitors that disrupt the binding of a cyclic peptide (Tn6) to the fibrin proteolytic product D-Dimer and fragment E complex [DD(E )].
T3 sequence (P02675 whole entry, the tested form may be a part): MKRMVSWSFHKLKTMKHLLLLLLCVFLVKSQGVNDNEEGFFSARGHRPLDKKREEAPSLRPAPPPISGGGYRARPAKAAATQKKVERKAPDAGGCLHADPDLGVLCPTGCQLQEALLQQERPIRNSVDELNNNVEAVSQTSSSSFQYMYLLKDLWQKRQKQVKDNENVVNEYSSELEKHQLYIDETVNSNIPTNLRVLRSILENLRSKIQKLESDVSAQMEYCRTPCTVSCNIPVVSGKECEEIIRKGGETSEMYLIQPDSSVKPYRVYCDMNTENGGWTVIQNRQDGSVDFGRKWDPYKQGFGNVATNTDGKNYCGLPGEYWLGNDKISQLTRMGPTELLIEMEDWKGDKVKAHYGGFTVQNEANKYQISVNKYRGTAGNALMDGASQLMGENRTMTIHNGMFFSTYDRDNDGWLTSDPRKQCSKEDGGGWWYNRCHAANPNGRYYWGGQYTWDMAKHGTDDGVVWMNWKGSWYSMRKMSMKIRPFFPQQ

Fibrinogen beta chain [10] = molecular target: T3, Fibrinogen beta chain; test: Fluorescence polarization-based biochemical high throughput dose response assay to identify inhibitors that disrupt the binding of a cyclic peptide (Tn7) to the fibrin proteolytic product D-Dimer and fragment E complex [DD(E )].
Cytochrome P450 3A4 = Cytochrome P450 3A4 (Homo sapiens, UniProt P08684);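 further: CYP3A4 tested as one member of a cytochrome P450 panel screen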
Chain of Cytochrome P450 3A4 (P08684 whole entry): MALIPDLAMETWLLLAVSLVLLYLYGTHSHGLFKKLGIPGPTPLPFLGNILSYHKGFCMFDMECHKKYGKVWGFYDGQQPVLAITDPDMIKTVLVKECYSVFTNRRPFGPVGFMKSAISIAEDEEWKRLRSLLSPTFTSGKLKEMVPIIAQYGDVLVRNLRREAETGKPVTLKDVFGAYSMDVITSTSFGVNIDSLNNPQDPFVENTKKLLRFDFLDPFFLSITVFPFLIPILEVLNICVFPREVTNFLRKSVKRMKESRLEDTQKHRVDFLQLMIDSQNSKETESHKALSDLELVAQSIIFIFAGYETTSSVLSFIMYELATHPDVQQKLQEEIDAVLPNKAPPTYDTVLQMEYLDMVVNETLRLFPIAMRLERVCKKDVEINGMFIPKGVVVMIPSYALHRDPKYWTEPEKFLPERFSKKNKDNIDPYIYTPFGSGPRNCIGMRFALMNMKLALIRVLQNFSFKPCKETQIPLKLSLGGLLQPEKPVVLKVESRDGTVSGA

[11] = molecular target: Heat shock protein HSP 90-alpha (Homo sapiens, UniProt P07900); test: Luminescence-based dose response biochemical high throughput screening assay for inhibitors of the Heat Shock Protein 90 (HSP90). [Related pubchem assays: 1831 (Summary AID.), 1846 (Confirmation screen.), 1789 (Primary screen.)]
Protein skinhead-1 = molecular target: T4, Protein skinhead-1 (Caenorhabditis elegans, UniProt P34707); format: functional
T4 sequence (P34707 whole entry): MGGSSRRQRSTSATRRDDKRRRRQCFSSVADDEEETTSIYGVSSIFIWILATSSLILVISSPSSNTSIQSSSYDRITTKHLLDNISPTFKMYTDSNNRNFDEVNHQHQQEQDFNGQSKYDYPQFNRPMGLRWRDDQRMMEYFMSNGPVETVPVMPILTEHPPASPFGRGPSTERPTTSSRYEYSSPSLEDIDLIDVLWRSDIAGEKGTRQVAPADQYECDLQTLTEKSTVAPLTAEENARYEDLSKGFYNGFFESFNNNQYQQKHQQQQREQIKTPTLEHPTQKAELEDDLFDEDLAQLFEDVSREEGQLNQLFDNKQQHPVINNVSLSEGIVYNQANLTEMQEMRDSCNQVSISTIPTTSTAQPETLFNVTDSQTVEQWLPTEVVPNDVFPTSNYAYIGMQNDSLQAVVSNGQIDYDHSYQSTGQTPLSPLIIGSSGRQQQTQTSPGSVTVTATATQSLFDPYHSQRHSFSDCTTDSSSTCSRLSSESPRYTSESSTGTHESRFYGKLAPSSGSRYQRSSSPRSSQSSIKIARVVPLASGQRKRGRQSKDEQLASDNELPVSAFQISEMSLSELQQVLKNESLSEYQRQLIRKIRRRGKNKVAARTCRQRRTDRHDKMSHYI

- IC50 (Estrogen receptor): > 50 µM (not active)
- IC50 (Estrogen receptor beta): > 50 µM (not active)
- IC50 [2]: > 53.2 µM (active)
SMILES: CSc1ccc(C2C(C#N)=C(N)Oc3c2ccc(=O)c2c(C)oc(C)c32)cc1 (centres undefined)
- CC50 [1]: > 40 µM (active)

SMILES: CCN1CCN(c2ccc(S(=O)(=O)N3CCCCC3)cc2NC(=O)Cc2c(Cl)cccc2Cl)CC1
- EC50 [3]: < 0.1 µM (active)
- EC50 [4]: 49.2 µM (active)
- IC50 (Vero): 27.1 µM (active)
- EC50 (cells): 0.06 µM (active)

- IC50 [5]: 12.1 µM (active)
- IC50 [6]: > 50 µM (inactive)
- AC50 (Cytochrome P450 2C19): 0.562 µM (inconclusive)
- IC50 [7]: 6.71 µM (active)
- IC50 [8]: > 100 µM (inactive)
- IC50 (Prothrombin): 33.4 µM (active)
- IC50 (Fibrinogen beta chain [9]): 14.3 µM (inactive)
- IC50 (Fibrinogen beta chain [10]): > 83.3 µM (inactive)
- AC50 (Cytochrome P450 3A4): inconclusive
SMILES: NS(=O)(=O)c1ccc(NS(=O)(=O)c2ccc(NC(=O)c3ccc(-c4ccccc4)cc3)cc2)cc1

- IC50 [11]: 0.235 µM (active)
- IC50 (Protein skinhead-1): 13.7 µM (active)
SMILES: Cc1oc(-c2ccc(-c3ccccc3)cc2)nc1CN(C)C1CCOC1 (centres undefined)
